Reference: patent publication US10633419B2, “Immunomodulators” (BRISTOL-MYERS SQUIBB COMPANY, priority 2014, dated 2020)
Positions of bridges follow the written chain, without caps; N, C: chain ends. Non-standard residues stand in square brackets, D forms with d. Residues, ends and D or L forms follow the SMILES beside them. *: point of attachment. X17 = COCCOCCOCCOCCOCCOCCOCCOCCOCCOCCOCCOCCOCCOCCOCCOCCOCCOCCOCCOCCOCCOCCOCCOCCOCCOCCOCCOCCOCCOCCOCCOCCOCCOCCOCCOCCOCCOCCOCCOCCOCCOCCOCCOCCOCCOCCOCCOCCOCCC(=O)*; Trp(1-CH2COOH) = N[C@@H](Cc1cn(CC(=O)O)c2ccccc12)C(=O)O; Phe(3,4,5-F3) = N[C@@H](Cc1cc(F)c(F)c(F)c1)C(=O)O; d(cisHyp) = O=C(O)[C@H]1C[C@@H](O)CN1; Hyp = O=C(O)[C@@H]1C[C@@H](O)CN1; NMeF = CN[C@@H](Cc1ccccc1)C(=O)O; NMeNle = CCCC[C@H](NC)C(=O)O; AEEEA = NCCOCCOCCOCC(=O)O; dPip = O=C(O)[C@H]1CCCCN1; NMeA = CN[C@@H](C)C(=O)O; Aun = NCCCCCCCCCCC(=O)O; Dab = NCC[C@H](N)C(=O)O; Dap = NC[C@H](N)C(=O)O

biological target: T1, PD-L1 (Homo sapiens, UniProt Q9NZQ7); experiment: PD-1/PD-L1 Homogenous Time-Resolved Fluorescence (HTRF) binding assay (PD-1-Ig/PD-L1-His); conditions: not given
T1 construct: hPDL1(19-239)-TVMV-His; made in house; host or cells: HEK293T
T1 sequence (Q9NZQ7 with tags, fused parts or gaps): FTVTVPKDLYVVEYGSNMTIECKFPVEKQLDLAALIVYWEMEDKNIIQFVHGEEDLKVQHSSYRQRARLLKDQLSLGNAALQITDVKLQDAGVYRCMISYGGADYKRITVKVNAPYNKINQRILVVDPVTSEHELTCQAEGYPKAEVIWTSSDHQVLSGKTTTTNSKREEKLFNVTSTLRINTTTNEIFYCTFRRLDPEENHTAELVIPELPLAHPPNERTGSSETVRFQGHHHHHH
Outline: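 Inhibitors pre-incubated 15 min with PD-L1-His (10 nM final), then PD-1-Ig (20 nM final) added for 15 min in dPBS/0.1% BSA/0.05% Tween-20. Eu-cryptate anti-Ig (1 nM) and APC anti-His (20 nM) added, 30 min equilibration, 665/620 nm HTRF ratio read.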

Row | SMILES | IC50 [nM]
1 | CCCC[C@H]1C(=O)N(C)[C@@H](CCCC)C(=O)N[C@@H](CCC(=O)O)C(=O)N[C@H](C(=O)NCC(=O)N[C@@H](Cc2cn(CCOCCOCCOCCOCCOCCOCCOCCOC(=O)CCC(=O)Oc3c(C)c(C)c4c(c3C)CC[C@@](C)(CCC[C@H](C)CCC[C@H](C)CCCC(C)C)O4)nn2)C(=O)NCC(N)=O)CSCC(=O)N[C@@H](Cc2ccc(O)cc2)C(=O)N(C)[C@@H](C)C(=O)N[C@@H](CC(=O)O)C(=O)N2CCC[C@H]2C(=O)N[C@@H](Cc2c[nH]cn2)C(=O)N[C@@H](CCCCN)C(=O)N2C[C@H](O)C[C@H]2C(=O)N[C@@H](Cc2c[nH]c3ccccc23)C(=O)N[C@@H](CCCCN)C(=O)N[C@@H](Cc2c[nH]c3ccccc23)C(=O)N1C [Example 14052] | 10 to 99

same assay, conditions: inhibition of PD-1-Ig binding to PD-L1-TVMV-His; value given as number; read-out: HTRF IC50

Row | SMILES | IC50 [nM]
2 | CCCC[C@H]1C(=O)N(C)[C@@H](CCCC)C(=O)N[C@@H](CCCNC(=N)N)C(=O)N[C@H](C(=O)NCC(=O)NCCCCCCCCCCC(=O)NCCCCCCCCCCC(=O)O)CSCC(=O)N[C@@H](Cc2ccc(O)cc2)C(=O)N(C)[C@@H](C)C(=O)N[C@@H](CC(N)=O)C(=O)N2CCC[C@H]2C(=O)N[C@@H](Cc2cnc[nH]2)C(=O)N[C@@H](CC(C)C)C(=O)N2C[C@H](O)C[C@H]2C(=O)N[C@@H](Cc2c[nH]c3ccccc23)C(=O)N[C@@H](CO)C(=O)N[C@@H](Cc2c[nH]c3ccccc23)C(=O)N1C [Example 11063] ({CH2CO}-Y[NMeA]NPHL[Hyp]WSW[NMeNle][NMeNle]RCG[Aun][Aun]-OH; thioether N-14) | 9.2
3 | CCCC[C@H]1C(=O)N(C)[C@@H](CCCC)C(=O)N[C@@H](CC(C)C)C(=O)N[C@H](C(=O)NCC(=O)N[C@H](CC(=O)O)C(=O)NCCCCCCCCCCC(=O)O)CSCC(=O)N[C@@H](Cc2ccc(O)cc2)C(=O)N(C)[C@@H](C)C(=O)N[C@@H](CC(N)=O)C(=O)N2CCC[C@H]2C(=O)N[C@@H](CN)C(=O)N[C@@H](CC(C)C)C(=O)N2C[C@H](O)C[C@H]2C(=O)N[C@@H](Cc2c[nH]c3ccccc23)C(=O)N[C@@H](CCN)C(=O)N[C@@H](Cc2cn(CC(=O)O)c3ccccc23)C(=O)N1C [Example 11101] ({CH2CO}-Y[NMeA]NP[Dap]L[Hyp]W[Dab][Trp(1-CH2COOH)][NMeNle][NMeNle]LCG[dD][Aun]-OH; thioether N-14) | 4.1
4 | CCCC[C@H]1C(=O)N2C[C@H](O)C[C@@H]2C(=O)N[C@@H](CC(=O)O)C(=O)N[C@@H](C(C)C)C(=O)N(C)[C@@H](Cc2ccccc2)C(=O)N[C@@H](Cc2ccc(O)cc2)C(=O)N2CCCC[C@@H]2C(=O)N[C@@H](Cc2c[nH]c3ccccc23)C(=O)N[C@@H](Cc2ccc(O)cc2)C(=O)N[C@@H](CC(C)C)C(=O)N[C@H](C(=O)NCC(=O)NCC(=O)NCC(=O)N[C@@H](CCCCNC(=O)CCOCCOCCOCCOCCOCCOCCOCCOCCOCCOCCOCCOCCOCCOCCOCCOCCOCCOCCOCCOCCOCCOCCOCCOCCOCCOCCOCCOCCOCCOCCOCCOCCOCCOCCOCCOCCOCCOCCOCCOCCOCCOCCOCCOCCOCCOCCOCCOCCOC)C(N)=O)CSCC(=O)N[C@@H](Cc2cc(F)c(F)c(F)c2)C(=O)N(C)[C@@H](Cc2ccccc2)C(=O)N1C [Example 3625] ({CH2CO}-[Phe(3,4,5-F3)][NMeF][NMeNle][d(cisHyp)]DV[NMeF]Y[dPip]WYLCGGGK(X17)-NH2; thioether N-13) | 6.3
5 | CCCC[C@H]1C(=O)N(C)[C@@H](CCCC)C(=O)N[C@@H](CC(C)C)C(=O)N[C@H](C(=O)NCC(=O)N[C@@H](Cc2cn(CC[C@H](NC(=O)CCCCCCCCCCCCCCCCC(=O)O)C(=O)O)nn2)C(=O)O)CSCC(=O)N[C@@H](Cc2ccc(O)cc2)C(=O)N(C)[C@@H](C)C(=O)N[C@@H](CC(N)=O)C(=O)N2CCC[C@H]2C(=O)N[C@@H](CN)C(=O)N[C@@H](CC(C)C)C(=O)N2C[C@H](O)C[C@H]2C(=O)N[C@@H](Cc2c[nH]c3ccccc23)C(=O)N[C@@H](CCN)C(=O)N[C@@H](Cc2cn(CC(=O)O)c3ccccc23)C(=O)N1C [Example 14095] | 14

same assay, conditions: inhibition of PD-1-Ig binding to PD-L1-TVMV-His; value given as range class; read-out: HTRF IC50

Row | SMILES | IC50 [nM]
6 | CCCC[C@H]1C(=O)N(C)[C@@H](CCCC)C(=O)N[C@@H](CC(C)C)C(=O)N[C@H](C(=O)NCCOCCOCCOCC(=O)NCCCCCCCCCCC(=O)O)CSCC(=O)N[C@@H](Cc2ccc(O)cc2)C(=O)N(C)[C@@H](C)C(=O)N[C@@H](CC(N)=O)C(=O)N2CCC[C@H]2C(=O)N[C@@H](CO)C(=O)N[C@@H](CCC(N)=O)C(=O)N2C[C@H](O)C[C@H]2C(=O)N[C@@H](Cc2c[nH]c3ccccc23)C(=O)N[C@@H](CO)C(=O)N[C@@H](Cc2cn(CC(=O)O)c3ccccc23)C(=O)N1C [Example 11085] ({CH2CO}-Y[NMeA]NPSQ[Hyp]WS[Trp(1-CH2COOH)][NMeNle][NMeNle]LC[AEEEA][Aun]-OH; thioether N-14) | 10 to 99
